Entries after “also recorded” stand apart in the source; their conditions may differ. Where two headings read alike, the source gives them in different places. One block for each molecule: values may come before it.
Legend:
[1] = tested on: SH-SY5Y neuroblastoma cells; assay: TTR-mediated cytotoxicity, resazurin cell-viability assay; conditions: TTR 15 μM, compound 15 μM, 72 h
[2] = target: T1, WT-TTR (Homo sapiens, UniProt P02766); assay: Turbidity assay of TTR aggregation at low pH; assay type: biochemical; conditions: WT-TTR 15 μM tetramer, compound 15 μM, pH 4.5, 72 h
T1 construct: made in house; host or cells: E. coli BL21

[3] = target: T2, V30M-TTR (Homo sapiens, UniProt P02766, V50M); assay: Turbidity assay of TTR aggregation at low pH; assay type: biochemical; conditions: V30M-TTR 15 μM tetramer, compound 15 μM, pH 4.5, 72 h
T2 construct: made in house; host or cells: E. coli BL21

[4] = cited from earlier work; for Serum concentration: after seven days, 12 hours after last dose
[5] = target: T3, TTR (Homo sapiens, UniProt P02766); assay: Isothermal titration calorimetry (ITC); assay type: binding
T3 construct: made in house; host or cells: E. coli BL21
Protocol: ITC experiments were performed using an Auto-iTC200 (MicroCal) at 25°C. […] For each experiment, 19 automated injections of 2 μL and a duration 0.8 s were performed with 300 s intervals between each injection and with a stirring speed of 1000 rpm. The titrations were done with high feedback and a filter period of 5 s and were repeated twice. Calorimetric data were plotted and fitted using the standard single-site binding model.

[6] = tested on: Sprague—Dawley rats; parameters: method as in PMID 25523853; conditions: prolonged daily oral 100, 300, or 1000 mg·kg−1·day−1; cited from earlier work
[7] = tested on: Salmonella typhimurium, Escherichia coli, and yeast cells; conditions: with and without metabolic activation; cited from earlier work
[8] = target: plasma TTR (Homo sapiens, UniProt P02766); assay: Drug efficacy/selectivity in human plasma (urea denaturation, western blot of monomeric TTR)
[9] = cited from earlier work
[10] = parameters: method as in earlier work; conditions: steady state after 14 days of daily administration; cited from earlier work
[11] = rats, single oral dose 300 mg/kg body weight

Compound: O=C(O)c1cc(-c2ccc(F)cc2F)ccc1O [Diflunisal, diflunisal]
Cell survival in presence of cytotoxic TTR [1]: increased cell survival to essentially that of the untreated control cells
Aggregation of TTR at low pH (turbidity at 400 nm) [2]: prevents the aggregation
Aggregation of TTRVal30Met at low pH (turbidity at 400 nm) [3]: prevents the aggregation
Serum concentration ([4]; 250 mg twice per day): 145 µM
Serum concentration ([4]; 500 mg twice per day): 420 µM
Bioavailability ([4]; oral administration): good

Compound: CC(C)(c1cc(Br)c(O)c(Br)c1)c1cc(Br)c(O)c(Br)c1 [TBBPA, 2,2’,6,6’-tetrabromo-4,4’-isopropylidentediphenol]
Kd ([5]; 25°C, assuming independent binding sites (single-site model), read-out: Binding affinity to TTR (Kd)): 20 nM
Kd ([5]; negative cooperativity, first site, read-out: Kd1): 6 nM
Kd ([5]; read-out: Kd2, negative cooperativity, second site): 975 nM
Mortality and neuropathological ailments [6]: did not result in increased mortality or the development of neuropathological ailments
Genotoxicity in Ames tests [7]: negative results
Cell survival in presence of cytotoxic TTR [1]: increased cell survival to essentially that of the untreated control cells
Aggregation of TTR at low pH (turbidity at 400 nm) [2]: efficiently prevents the aggregation
IC50 ([8]; IC50 plasma, human plasma, 2 h incubation, 4 M urea, three independent experiments): 3300 ± 500 nM
Saturation of the high-affinity binding site of TTR ([8]; at a TBBPA plasma concentration of 5 μM, based on the IC50 value): 48%
Stabilization of TTR tetramer in human plasma ([8]; human plasma, 4 M urea): effectively stabilizes TTR at a stoichiometric ratio in plasma; also recorded: pronounced stabilizing effect on TTR is observed even at concentrations as low as 4 μM
Oral bioavailability ([9]; animals, oral intake, compared to tafamidis and diflunisal): low bioavailability
Half-lives ([9]; oral 200, 500 and 1000 mg/kg): 7.5 to 9.5 h
Half-life [9, 11]: around 13 h
Time of maximal serum concentration [9, 11]: 3 h
Elimination half-life ([9]; single oral dose 250 mg/kg body weight, 14C-TBBPA, non-compartmental model): around 4.5 h
Time of maximal plasma concentration post-dose ([9]; single oral dose 250 mg/kg body weight, 14C-TBBPA): 127 min
Aggregation of TTRVal30Met at low pH (turbidity at 400 nm) [3]: efficiently prevents the aggregation

Aggregation of TTR at low pH (turbidity at 400 nm) [2]: prevents the aggregation
Saturation level of TTR ([8]; from IC50 around 5 μM and tafamidis plasma concentration 3.5–8.5 μM, TTR 4 μM): 31–56%
Aggregation of TTRVal30Met at low pH (turbidity at 400 nm) [3]: prevents the aggregation
Compound: O=C(O)c1ccc2nc(-c3cc(Cl)cc(Cl)c3)oc2c1 [Tafamidis, tafamidis]
Cell survival in presence of cytotoxic TTR [1]: increased cell survival to essentially that of the untreated control cells
Clinically beneficial plasma concentration [10]: 3.5 to 8.5 µM
